From patent publication US9890129B2, “Aminoalkylbenzothiazepine derivatives and uses thereof” (CJ Healthcare Corporation, priority 2014, dated 2018)

System: SD rats
Assay: Feces excretion time and evaluation of efficiency (barium-containing diet, oral administration)
Type: in vivo, rat
Details: for Feces excretion time (min) @ volume (mg/kg): observed 10 hours
Protocol: Eight-week-old SD rats were purchased and allowed to adapt to breeding conditions under 12-hour illumination at 24° C. for 7 days. The rats were made to fast for 16 hours before the experimental day, and orally administered on the experimental day with a vehicle (0.5% methylcellulose) and a test material, […], respectively. Thirty minutes after the administration, the rats fed with 3 g of a barium-containing diet were placed into a metabolism cage and observed to record the time required for the barium to be excreted as feces in each rat after being passed through the intestines for 10 hours. Additionally, the percentage of rats that excreted barium-containing feces within 10 hours were calculated, and the results are shown in Table 1 below.

Compound | Percentage of subjects excreting feces within 10 hours (%) (0.1 mg/kg) | Feces excretion time (min) @ volume (mg/kg) (0.1 mg/kg) | Percentage of subjects excreting feces within 10 hours (%) (1 mg/kg) | Feces excretion time (min) @ volume (mg/kg) (1 mg/kg) | Percentage of subjects excreting feces within 10 hours (%) (5 mg/kg) | Feces excretion time (min) @ volume (mg/kg) (5 mg/kg)
CCCCC1(CCCC)CN(c2ccccc2)c2cc(SC)c(CNCC(=O)O)cc2S(=O)(=O)C1 [Example 1, 2-(((3,3-dibutyl-7-methylthio-1,1-dioxido-5-phenyl-2,3,4,5-tetrahydrobenzo[b][1,4]thiazepine-8-yl)methyl)amino)acetic acid] | B @ 0.1 (B: 50-75%) | C @ 0.1 (C: 501-590 min) | A @ 1 (A: 76-100%) | B @ 1 (B: 401-500 min) | A @ 5 (A: 76-100%) | A @ 5 (A: 301-400 min)
CCCCC1(CCCC)CN(c2ccccc2)c2cc(SC)c(CNC(=O)CS(=O)(=O)O)cc2S(=O)(=O)C1 [Example 18, 2-(((3,3-dibutyl-7-methylthio-1,1-dioxido-5-phenyl-2,3,4,5-tetrahydrobenzo[b][1,4]thiazepine-8-yl)methyl)amino)-2-oxoethanesulfonic acid] |  |  | B @ 1 (B: 50-75%) | B @ 1 (B: 401-500 min) |  | 
CCCCC1(CCCC)CN(c2ccc(OC)cc2)c2cc(SC)c(CNCC(=O)O)cc2S(=O)(=O)C1 [Example 19, 2-(((3,3-dibutyl-5-(4-methoxyphenyl)-7-methylthio-1,1-dioxido-2,3,4,5-tetrahydrobenzo[b][1,4]thiazepine-8-yl)methyl)amino)acetic acid] |  |  | A @ 1 (A: 76-100%) | C @ 1 (C: 501-590 min) | A @ 5 (A: 76-100%) | B @ 5 (B: 401-500 min)
CCCCC1(CCCC)CN(c2ccc(O)cc2)c2cc(SC)c(CNCC(=O)O)cc2S(=O)(=O)C1 [Example 20, 2-(((3,3-dibutyl-5-(4-hydroxyphenyl)-7-methylthio-1,1-dioxido-2,3,4,5-tetrahydrobenzo[b][1,4]thiazepine-8-yl)methyl)amino)acetic acid] | A @ 0.1 (A: 76-100%) | C @ 0.1 (C: 501-590 min) | A @ 1 (A: 76-100%) | B @ 1 (B: 401-500 min) | A @ 5 (A: 76-100%) | A @ 5 (A: 301-400 min)
CCCCC1(CCCC)CN(c2ccc(F)cc2)c2cc(SC)c(CNCC(=O)O)cc2S(=O)(=O)C1 [Example 22, 2-(((3,3-dibutyl-5-(4-fluorophenyl)-7-methylthio-1,1-dioxido-2,3,4,5-tetrahydrobenzo[b][1,4]thiazepine-8-yl)methyl)amino)acetic acid] | A @ 0.1 (A: 76-100%) | B @ 0.1 (B: 401-500 min) | A @ 1 (A: 76-100%) | B @ 1 (B: 401-500 min) | A @ 5 (A: 76-100%) | A @ 5 (A: 301-400 min)
CCCCC1(CCCC)CN(c2ccc(OC)c(F)c2)c2cc(SC)c(CNCC(=O)O)cc2S(=O)(=O)C1 [Example 24, 2-(((3,3-dibutyl-5-(3-fluoro-4-methoxyphenyl)-7-methylthio-1,1-dioxido-2,3,4,5-tetrahydrobenzo[b][1,4]thiazepine-8-yl)methyl)amino)acetic acid] |  |  | A @ 1 (A: 76-100%) | C @ 1 (C: 501-590 min) | A @ 5 (A: 76-100%) | A @ 5 (A: 301-400 min)
